Laboratory results published in patent US10442803B2, “Tricyclic heterocycles as bet protein inhibitors” (Incyte Corporation, priority 2013, dated 2019).
Where a name gives a salt, the structure may show the parent alone. Read-outs that look alike come from different tables or passages of the source.

Tested on: KMS.12.BM cells
Assay: KMS.12.BM cell viability assay
Assay type: cell-based
Settings: KMS.12.BM human myeloma cells, 3 days, Cell Titer-GLO ATP quantitation, read-out: KMS cellular IC50
Outline: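 Human myeloma KMS.12.BM cells, 5000 per well in RPMI/10% FBS, exposed 3 days to compound concentration range. Viability from ATP-based Cell Titer-GLO luminescence; IC50 derived.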

| Structure (SMILES) | IC50 (72 h) | IC50 |
| --- | --- | --- |
| Cc1cc2c(cc(N[C@@H]3CCNC3)c3nnc(C)n32)n1Cc1ccccc1 [Example 151, 6-benzyl-1,7-dimethyl-N-[(3R)-pyrrolidin-3-yl]-6H-pyrrolo[2,3-e][1,2,4]triazolo[4,3-a]pyridin-4-amine bis(trifluoroacetate) salt] | ≤ 1000 nM |  |
| CC(=O)N1CC(CC#N)(n2ccc(-c3cc4c(ccc5nnc(C)n54)n3Cc3cccc(Cl)c3)n2)C1 [Example 106, (1-acetyl-3-{3-[6-(3-chlorobenzyl)-1-methyl-6H-pyrrolo[2,3-e][1,2,4]triazolo[4,3-a]pyridin-7-yl]-1H-pyrazol-1-yl}azetidin-3-yl)acetonitrile] | ≤ 1000 nM |  |
| Cc1cc2c(cc(NC(N)=O)c3nnc(C)n32)n1Cc1c(F)cccc1F [Example 254, 1-(6-(2,6-Difluorobenzyl)-1,7-dimethyl-6H-pyrrolo[2,3-e][1,2,4]triazolo[4,3-a]pyridin-4-yl)urea] | ≤ 1000 nM |  |
| Cc1cc2c(ccc3nnc(C)n32)n1Cc1ccccc1Cl [Example 8, 6-(2-chlorobenzyl)-1,7-dimethyl-6H-pyrrolo[2,3-e][1,2,4]triazolo[4,3-a]pyridine] | ≤ 1000 nM |  |
| Cc1nnc2ccc3c(ccn3Cc3ccccc3)n12 [Example 1, 6-benzyl-1-methyl-6H-pyrrolo[2,3-e][1,2,4]triazolo[4,3-a]pyridine] | 1000 to 10000 nM |  |
| Cc1nnc2ccc3c(cc(-c4ccn(CCO)n4)n3Cc3cccc(Cl)c3)n12 [Example 178, 2-{3-[6-(3-Chlorobenzyl)-1-methyl-6H-pyrrolo[2,3-e][1,2,4]triazolo[4,3-a]pyridin-7-yl]-1H-pyrazol-1-yl}ethanol trifluoroacetate salt] | ≤ 1000 nM |  |
| Cc1cc2c(ccc3nnc(C)n32)n1Cc1cccc(C#N)c1 [Example 20, 3-[(1,7-dimethyl-6H-pyrrolo[2,3-e][1,2,4]triazolo[4,3-a]pyridine-6-yl)methyl]benzonitrile] | ≤ 1000 nM |  |
| Cc1cc2c(cc(NCCCN)c3nnc(C)n32)n1Cc1ccccc1 [Example 257, N1-(6-Benzyl-1,7-dimethyl-6H-pyrrolo[2,3-e][1,2,4]triazolo[4,3-a]pyridin-4-yl)propane-1,3-diamine] | ≤ 1000 nM |  |
| Cc1cc2c(cc(NS(C)(=O)=O)c3nnc(C)n32)n1Cc1ccccc1 [Example 271, N-(6-Benzyl-1,7-dimethyl-6H-pyrrolo[2,3-e][1,2,4]triazolo[4,3-a]pyridin-4-yl)methanesulfonamide] | ≤ 1000 nM |  |
| Cc1ccc(Cn2c(C)cc3c2ccc2nnc(C)n23)cc1 [Example 19, 1,7-dimethyl-6-(4-methylbenzyl)-6H-pyrrolo[2,3-e][1,2,4]triazolo[4,3-a]pyridine] | ≤ 1000 nM |  |
| CNC(=O)c1cc2c(ccc3nnc(C)n32)n1Cc1cccc(C(F)(F)F)c1 [Example 136, N,1-dimethyl-6-[3-(trifluoromethyl)benzyl]-6H-pyrrolo[2,3-e][1,2,4]triazolo[4,3-a]pyridine-7-carboxamide trifluoroacetate salt] | ≤ 1000 nM |  |
| CNC(=O)c1cc2c(ccc3nnc(C)n32)n1Cc1cc(Cl)cc(CN2CCC2)c1 [Example 131, 6-[3-(Azetidin-1-ylmethyl)-5-chlorobenzyl]-N,1-dimethyl-6H-pyrrolo[2,3-e][1,2,4]triazolo[4,3-a]pyridine-7-carboxamide bis(trifluoroacetate) salt] | ≤ 1000 nM |  |
| Cc1cc2c(ccc3nnc(C)n32)n1Cc1cccc(CN[C@H]2C[C@H](O)C2)c1 [Example 39, (1r,3r)-3-((3-((1,7-dimethyl-6H-pyrrolo[2,3-e][1,2,4]triazolo[4,3-a]pyridin-6-yl)methyl)benzyl)amino)cyclobutanol] | ≤ 1000 nM |  |
| CCn1ccc(-c2cc3c(ccc4nnc(C)n43)n2Cc2ccccc2)n1 [Example 79, 6-benzyl-7-(1-ethyl-1H-pyrazol-3-yl)-1-methyl-6H-pyrrolo[2,3-e][1,2,4]triazolo[4,3-a]pyridine] | ≤ 1000 nM |  |
| Cc1nnc2ccc3c(cc(-c4cc[nH]n4)n3Cc3cccc(CN4CCC4)c3)n12 [Example 182, 6-[3-(Azetidin-1-ylmethyl)benzyl]-1-methyl-7-(1H-pyrazol-3-yl)-6H-pyrrolo[2,3-e][1,2,4]triazolo[4,3-a]pyridine tris(trifluoroaceate) salt] |  | ≤ 1000 nM |
| Cc1nnc2ccc3c(ccn3C(C)c3ccccc3)n12 (racemic) [Example 4, 1-methyl-6-(1-phenylethyl)-6H-pyrrolo[2,3-e][1,2,4]triazolo[4,3-a]pyridine] | 1000 to 10000 nM |  |
| CC(=O)N1CC(CC#N)(n2ccc(-c3cc4c(ccc5nnc(C)n54)n3Cc3ccccc3)n2)C1 [Example 91, {1-acetyl-3-[3-(6-benzyl-1-methyl-66H-pyrrolo[2,3-e][1,2,4]triazolo[4,3-a]pyridin-7-yl)-1H-pyrazol-1-yl]azetidin-3-yl}acetonitrile] | ≤ 1000 nM |  |
| CCNc1cc2c(cc(C)n2Cc2ccccc2)n2c(C)nnc12 [Example 259, 6-Benzyl-N-ethyl-1,7-dimethyl-6H-pyrrolo[2,3-e][1,2,4]triazolo[4,3-a]pyridin-4-amine] | ≤ 1000 nM |  |
| Cc1nnc2ccc3c(cc(-c4ccn(C5(CC#N)CNC5)n4)n3Cc3ccccc3)n12 [Example 90, {3-[3-(6-benzyl-1-methyl-6H-pyrrolo[2,3-e][1,2,4]triazolo[4,3-a]pyridin-7-yl)-1H-pyrazol-1-yl]azetidin-3-yl}acetonitrile] | ≤ 1000 nM |  |
| Cc1cc2c(ccc3nnc(C)n32)n1Cc1cccc(CN(C)C)c1 [Example 40, 1-{3-[(1,7-dimethyl-6H-pyrrolo[2,3-e][1,2,4]triazolo[4,3-a]pyridin-6-yl)methyl]phenyl}-N,N-dimethylmethanamine] | ≤ 1000 nM |  |
| Cc1nnc2ccc3c(cc(-c4ncco4)n3Cc3cc(Cl)cc(CN4CCC(O)C4)c3)n12 (racemic) [Example 199, 1-(3-Chloro-5-{[1-methyl-7-(1,3-oxazol-2-yl)-6H-pyrrolo[2,3-e][1,2,4]triazolo[4,3-a]pyridin-6-yl]methyl}benzyl)pyrrolidin-3-ol bis(trifluoroacetate) salt (racemic)] | ≤ 1000 nM |  |
| CCN1CC(CC#N)(n2ccc(-c3cc4c(ccc5nnc(C)n54)n3Cc3cccc(Cl)c3)n2)C1 [Example 158, (3-{3-[6-(3-Chlorobenzyl)-1-methyl-6H-pyrrolo[2,3-e][1,2,4]triazolo[4,3-a]pyridin-7-yl]-1H-pyrazol-1-yl}-1-ethylazetidin-3-yl)acetonitrile bis(trifluoroacetate) salt] | ≤ 1000 nM |  |
| Cc1cc2c(cc(NC(N)=O)c3nnc(C)n32)n1Cc1cccc(Cl)c1 [Example 231, 1-(6-(3-Chlorobenzyl)-1,7-dimethyl-6H-pyrrolo[2,3-e][1,2,4]triazolo[4,3-a]pyridin-4-yl)urea] | ≤ 1000 nM |  |
| Cc1nnc2ccc3c(cc(-c4ccn(CC#N)n4)n3Cc3ccccc3)n12 [Example 65, [3-(6-benzyl-1-methyl-6H-pyrrolo[2,3-e][1,2,4]triazolo[4,3-a]pyridin-7-yl)-1H-pyrazol-1-yl]acetonitrile] | ≤ 1000 nM |  |
| Cc1nnc2ccc3c(cc(C(=O)NCC(C)C)n3Cc3cccc(Cl)c3)n12 [Example 129, 6-(3-Chlorobenzyl)-N-isobutyl-1-methyl-6H-pyrrolo[2,3-e][1,2,4]triazolo[4,3-a]pyridine-7-carboxamide trifluoroacetate salt] | ≤ 1000 nM |  |
